This passage reports Ki results from patent US5847148A, “Thiadiazole derivatives useful for the treatment of diseases related to connective tissue degradation” (Pharmacia & Upjohn Company, priority 1997, dated 1998).

This assay addresses Stromelysin (Homo sapiens, UniProt P08254). The experiment in a line: MMP (stromelysin) inhibition, particle concentration fluorescence assay. The class given is biochemical. The settings on record: in vitro; fluorescein/biotin substrate; MMP buffer pH 7.5; room temperature; 15 minutes preincubation, 1-3 hours; read-out: Stromelysin Ki (MMP Inhibition Constants).

Each structure is given as a SMILES string.

Sequence of Stromelysin (P08254 100-477): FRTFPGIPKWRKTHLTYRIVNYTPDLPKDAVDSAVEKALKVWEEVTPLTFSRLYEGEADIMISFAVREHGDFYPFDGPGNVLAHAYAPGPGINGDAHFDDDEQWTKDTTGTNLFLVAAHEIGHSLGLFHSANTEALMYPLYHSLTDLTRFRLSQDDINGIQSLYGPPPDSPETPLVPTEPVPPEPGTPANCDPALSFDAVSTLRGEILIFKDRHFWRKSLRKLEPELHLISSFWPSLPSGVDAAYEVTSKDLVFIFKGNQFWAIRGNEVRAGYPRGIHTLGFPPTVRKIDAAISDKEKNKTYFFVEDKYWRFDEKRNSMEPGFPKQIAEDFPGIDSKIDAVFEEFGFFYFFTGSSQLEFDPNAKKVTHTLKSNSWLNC
Description: Inhibitory activity is evaluated in one or more of the MMP enzymes (stromelysin, gelatinase, and collagenase) in vitro using particle concentration fluorescence assay. An inhibitor binds to MMP enzymes which prevents the degradation of a substrate by stromelysin, gelatinase, or collagenase. The substrate has attached to it a fluorescein and a biotin moiety. The intact substrate then binds to an avidin-coated particle via the biotin moiety. Once the particle is washed and dried, a fluorescent signal is generated since the fluorescent group is attached to the particle. Without an inhibitor present, the substrate is degraded by MMP enzymes and the fluorescein group is removed, therefore, no fluorescent signal can be detected. Testing compounds are dissolved in DMSO to the desired concentration, then the solutions are diluted to 1:5 with MMP buffer (50 mM Tris-HCl, pH 7.5; 150 mM NaCl; 0.02% NaN3). Serial two-fold dilutions of each compound are prepared. A concentrated, activated enzyme solution is transferred into each plate of the testing compounds, and the mixture is incubated at room temperature for 15 minutes. […] At this point, the substrate mixture is mixed with 0.1% avidin-coated polystyrene particles. After 15 minutes, the fluorescence values are measured following filtration and washing of the beads. Ki values are then calculated.

For orientation: Ki means the equilibrium dissociation constant of an inhibitor or competing ligand from its target. For the molecule `CNC(=O)[C@@H](NC(=O)Nc1n[nH]c(=S)s1)[C@@H](C)OCc1ccccc1` [Example 66, 2-[[[(4,5-Dihydro-5-thioxo-1,3,4-thiadiazol-2-yl)amino]carbonyl]amino]-N-methyl-3-(phenylmethoxy)-(2S)-butanamide], the Ki turned out to be 760 nM. As for `COC(=O)[C@H](COC(C)(C)C)NC(=O)Nc1n[nH]c(=S)s1` [Example 67, N-[[(4,5-Dihydro-5-thioxo-1,3,4-thiadiazol-2-yl)amino]carbonyl]-O-(1,1-dimethylethoxy)-L-serine methyl ester], the Ki worked out at 6700 nM. The same measure for `CNC(=O)[C@@H](NC(=O)Nc1n[nH]c(=S)s1)[C@@H](C)OC(C)(C)C` [Example 75, 2-[[[(4,5-Dihydro-5-thioxo-1,3,4-thiadiazol-2-yl)amino]carbonyl]amino]-3-(1,1-dimethylethoxy)-N-methyl-(S)-butanamide]: 670 nM.
